# According to US20170304369A1, “METHODS OF DIFFERENTIATING STEM CELLS INTO LIVER CELL LINEAGES” (Agency for Science, Technology and Research, priority 2014, published 2017):
# How the values were obtained:
# [1] = tested on: hepatic progenitors; test: Treatment of hepatic progenitors (days 13-18), hepatocyte-like cell, periportal versus perivenous gene expression; type: cell-based, human
# [2] = tested on: PFG cells; test: Liver bud (LB) specification from posterior foregut, days 4-6, gene expression; type: cell-based, human
# Procedure: (§1) mTeSR1-grown hPSCs were cultured and differentiated as follows: • a) hPSCs cells were seeded at 1:12 as small clumps using Accutase (Millipore, Cat#SCR005) and Geltrex (Lifetech, Cat#A1413302). • b) Anterior Primitive Streak (day 1) was specified using Activin A (100 ng/ml), CHIR99021 (3 μM), PI-103 (50 nM) and Fgf2 (10 ng/ml) in serumless CDM2 basal medium for 24 hr. • c) Activin A (100 ng/ml) and DM3189 (250 nM) and PI-103 (50 nM) were added in the same basal medium for 24 hr to induce Definitive Endoderm (DE) (day 2). • d) DE was then patterned into PFG by using A83-01 (1 μM), RA (2 μM), BMP4 (30 ng/ml) and Fgf2 (10 ng/ml) in CDM KOSR basal media for another 24 hrs. • e) PFG was further differentiated to LB progenitors using Activin A (100 ng/ml), 8-bromo-CAMP (1 mM) and BMP4 (10 ng/ml) in CDM KOSR basal media for 3 days (day 4 to 6). • f) LB progenitors were treated with BMP4 (10 ng/ml), Oncostatin M (10 ng/ml), Dexamethasone ([…]), DAPT, C59 (1 μM) or RO4919097 (2 μM), forskolin ([…]), human recombinant insulin (10 μg/ml), ascorbic acid-2 phosphate (200 μg/ml), L-gluthathione ([…]) and amino acid concentrate and in IMDM/F12 media for the next 6 days (day 7 to 12) to induce hepatic progenitors. • g) Hepatic progenitors were treated with Dexamethasone (10 μM), RO4929097 (2 μM) or DAPT (10 μM), Forskolin (10 μM), human recombinant insulin (10 μg/ml), ascorbic acid-2 phosphate (200 μg/ml) in IMDM/F12 media for 6 days (day 13 to 18) to generate hepatocyte-like cells. Intra-Splenic Transplantation into FRG^−/− Mice
# (§2) RNA was extracted using Zymo RNA extraction kit. RT-quantitative PCR was used to quantify gene expression. Primer sequences were designed by NCBI Primer Tool and primer specificity and linearity was tested before usage for gene expression analyses.
# The signaling pathways, including Retinoic, Nodal/Activin, Bmp, PKA, FGF and Wnt signaling, were explored to determine if they could directly regulate LB specification.
# [3] = tested on: hPSC-derived DE; test: Foregut specification: treatment of hPSC-derived DE (day 3), downstream gene expression by RT-qPCR; type: cell-based, human; conditions: for downstream LB gene expression (AFP, CEBPA, TBX3, HNF1B) / expression of MHG markers CDX2 and EVX1: 24 h during foregut specification; for HNF6, PROX1 and HEX expression: Wnt inhibition during foregut specification
# Description: RT-quantitative PCR was used to quantify gene expression. […] During liver development, populations of definitive endoderm cells are first patterned along the anterior-posterior axis to form either the foregut or mid/hindgut. In the present invention the effects of signaling inhibition on the developmental competence of the foregut cells to give rise to the liver bud (LB) cells was examined. Competence is defined as the capacity of one stem cell or progenitor cell to differentiate into its daughter cell type. For example, the posterior foregut is competent when it could give rise to its daughter cell types such as the pancreatic endoderm and LB cells.
# [4] = tested on: hPSC-derived LB cells; test: Hepatic progenitor specification from hPSC-derived LB cells (days 7-12), liver gene expression
# Procedure: as §1, §2
# To identify the signals that regulate the progression of the LB progenitors from an ALB- to a more differentiated ALB+ state, multiple signaling pathways were systematically screened for their effects on ALB expression (including FGF, WNT, Notch, HGF, cAMP/PKA, TGFβ, and BMP).
compound,measurement,setting,value
Activin: activator of TGFβ signaling,periportal genes,[1],downregulation
same,later expression of ALB in subsequent differentiation,[2]; 10 ng/ml during LB specification,increases
same,"HNF4A, HNF1A, and TBX3 levels",[2]; day 4 to 6,increases
same,LB expression (AFP and CEBPA),[2]; day 4 to 6,reduces
same,LB marker expression,[2]; increasing the dose,seems to reduce
same,expression of ALB on day 13,[2]; treatment during LB specification (days 4-6),enhances
"DKK1: Dickkopf 1, inhibitor of Wnt signaling","expression of ALB, CYP3A7",[1],promotes
same,"downstream LB gene expression (AFP, CEBPA, TBX3, HNF1B)",[3],severely reduces
same,expression of MHG markers CDX2 and EVX1,[3],reduces
same,"HNF6, PROX1 and HEX expression",[3],upregulated
human recombinant insulin: activator of insulin signaling,tyrosine metabolic genes and xenobiotic metabolic genes such as CYP3A4,[1],continues to enhance
same,"expression of ALB, CPS1 and CYP3A4",[4],strongly enhanced
same,"expression of PAH, HGD, HPD, TAT, MAI, and FAH",[4]; days 7 to 12,significantly increases
"COC(=O)[C@@]1(OC)C[C@H]2O[C@]1(C)n1c3ccccc3c3c4c(c5c6ccccc6n2c5c31)C(=O)N(C)C4 [KT5823, (9S,10R,12R)-2,3,9,10,11,12-Hexahydro-10-methoxy-2,9-dimethyl-1-oxo-9,12-epoxy-1H-diindolo[1,2,3-fg:3′,2′,1′-kl]pyrrolo[3,4-i][1,6]benzodiazocine-10-carboxylic acid, methyl ester]","expression of FAH, PAH, HGD, TAT, CPS1, ARG1, FBA, FBB and FBG",[1]; PKG antagonists,upregulate
"Cc1cc(-c2ccc(CC(=O)Nc3ccc(-c4cccnc4)cc3)cc2)ccn1 [C59, 2-(4-(2-methylpyridin-4-yl)phenyl)-N-(4-(pyridin-3-yl)phenyl)acetamide]","expression of ALB, CYP3A7",[1],promotes
same,"downstream LB gene expression (AFP, CEBPA, TBX3, HNF1B)",[3],severely reduces
same,expression of MHG markers CDX2 and EVX1,[3],reduces
same,"HNF6, PROX1 and HEX expression",[3],upregulated
